Measured values: patent US10968192B2, “Crystalline solid forms of N-(1-((2-(dimethylamino)ethyl)amino)-2-methyl-1-oxopropan-2-yl)-4-(4-(2-methyl-5-((2S,3R,4R,5S,6R)-3,4,5-trihydroxy-6-(methylthio)tetrahydro-2H-pyran-2-yl)benzyl)phenyl)butanamide and methods of their synthesis” (Lexicon Pharmaceuticals, Inc., priority 2018, dated 2021)

Legend:
[1] = biological target: T1, sodium glucose co-transporter type 1 (SGLT1) (Homo sapiens, UniProt P13866); details: qualitative statement; see U.S. Pat. No. 9,200,025, Examples 6.39, 6.40; cited from earlier work
T1 sequence (P13866 1-664): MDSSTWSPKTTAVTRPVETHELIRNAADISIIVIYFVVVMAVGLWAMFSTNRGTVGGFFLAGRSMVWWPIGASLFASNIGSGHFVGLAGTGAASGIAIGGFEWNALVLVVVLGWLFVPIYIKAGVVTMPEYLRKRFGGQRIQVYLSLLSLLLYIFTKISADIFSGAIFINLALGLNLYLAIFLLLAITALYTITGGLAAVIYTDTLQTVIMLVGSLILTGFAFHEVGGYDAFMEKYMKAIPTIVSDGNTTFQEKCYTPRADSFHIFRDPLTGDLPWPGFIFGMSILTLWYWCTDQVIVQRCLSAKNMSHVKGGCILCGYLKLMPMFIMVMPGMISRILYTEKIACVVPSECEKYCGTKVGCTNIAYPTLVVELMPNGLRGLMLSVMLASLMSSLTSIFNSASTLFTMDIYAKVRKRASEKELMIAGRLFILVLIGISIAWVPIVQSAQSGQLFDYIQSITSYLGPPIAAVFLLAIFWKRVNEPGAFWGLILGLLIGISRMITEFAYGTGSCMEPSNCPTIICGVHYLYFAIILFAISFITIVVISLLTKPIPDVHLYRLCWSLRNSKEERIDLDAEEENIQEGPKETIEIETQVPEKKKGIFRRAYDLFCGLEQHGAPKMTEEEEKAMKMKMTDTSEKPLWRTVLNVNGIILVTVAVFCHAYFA

[2] = Polymorphism studies of the L-proline co-crystal: solid-form stability upon drying; format: physicochemical
From the text: Significant further research directed at discovering useful and stable solid forms of the compound finally led to the discovery of a few crystalline forms of the free base, solvates, and co-crystals. […] Although polymorphism studies led to the identification of eleven different Raman spectroscopic classes of the co-crystal, three were dominated by amorphous material and most were unstable (i.e., lose their crystallinity or convert to other forms) upon drying. […] The suspension was filtered and the wet-cake was dried. […] (DSC peak 147° C.). The solid was used as seeds to prepare 0.7 g more Form II polymorph of the L-proline cocrystal in a similar fashion.

CS[C@H]1O[C@@H](c2ccc(C)c(Cc3ccc(CCCC(=O)NC(C)(C)C(=O)NCCN(C)C)cc3)c2)[C@H](O)[C@@H](O)[C@@H]1O [Compound I, N-(1-((2-(dimethylamino)ethyl)-amino)-2-methyl-1-oxopropan-2-yl)-4-(4-(2-methyl-5-((2S,3R,4R,5S,6R)-3,4,5-trihydroxy-6-(methylthio)tetrahydro-2H-pyran-2-yl)benzyl)phenyl)butanamide]
inhibition of sodium glucose co-transporter type 1 (SGLT1) [1]: potent inhibitor

CS[C@H]1O[C@@H](c2ccc(C)c(Cc3ccc(CCCC(=O)NC(C)(C)C(=O)NCCN(C)C)cc3)c2)[C@H](O)[C@@H](O)[C@@H]1O [Form II, N-(1-((2-(dimethylamino)ethyl)-amino)-2-methyl-1-oxopropan-2-yl)-4-(4-(2-methyl-5-((2S,3R,4R,5S,6R)-3,4,5-trihydroxy-6-(methylthio)tetrahydro-2H-pyran-2-yl)benzyl)phenyl)butanamide L-proline]
solid-form stability (retains crystallinity / does not convert to other forms upon drying) ([2]; L-proline co-crystal forms, polymorphism studies): stable enough to be useful in pharmaceutical formulations

CS[C@H]1O[C@@H](c2ccc(C)c(Cc3ccc(CCCC(=O)NC(C)(C)C(=O)NCCN(C)C)cc3)c2)[C@H](O)[C@@H](O)[C@@H]1O [Form I, N-(1-((2-(dimethylamino)ethyl)-amino)-2-methyl-1-oxopropan-2-yl)-4-(4-(2-methyl-5-((2S,3R,4R,5S,6R)-3,4,5-trihydroxy-6-(methylthio)tetrahydro-2H-pyran-2-yl)benzyl)phenyl)butanamide L-proline]
solid-form conversion upon drying ([2]; wet cake from ethanol, dried at 50° C.): converted to Form II upon drying
